The values that follow come from PMC11096235, “Membrane-bound chemoreception of bitter bile acids and peptides is mediated by the same subset of bitter taste receptors” (Cellular and Molecular Life Sciences: CMLS, 2024).

Peptide text beside a SMILES is read from it.

Common to all, as to test: FLIPR calcium mobilization (Fluo-4), agonist activation
Common to all, as to type: cell-based
What all share (conditions): HEK 293T-Gα16gust44 cells, pH 7.4
For orientation: Calcium flux is commonly read through the fluorescence of an indicator in the cells.

One assay has as its target T1, Tas2r29 (xtTas2r29) (Xenopus tropicalis, UniProt Q2AB56).
T1 construct: full length, N-terminal sst3 export tag, C-terminal hsv tag; HEK 293T-Galpha16gust44
T1 sequence (Q2AB56 1-290): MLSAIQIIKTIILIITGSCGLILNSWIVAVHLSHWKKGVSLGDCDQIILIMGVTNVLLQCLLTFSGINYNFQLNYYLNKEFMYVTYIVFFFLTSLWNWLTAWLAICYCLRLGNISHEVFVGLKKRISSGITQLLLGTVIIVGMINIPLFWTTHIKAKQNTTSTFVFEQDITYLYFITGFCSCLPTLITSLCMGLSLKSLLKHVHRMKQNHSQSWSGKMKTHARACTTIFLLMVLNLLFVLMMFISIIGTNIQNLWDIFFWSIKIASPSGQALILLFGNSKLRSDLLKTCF

For assay [1], the target named is T2, zebrafish receptor Tas2r4 (Danio rerio, UniProt Q58WW8).
T2 construct: gene tas2r203; full length, N-terminal sst3 export tag, C-terminal hsv tag; HEK 293T-Galpha16gust44
T2 sequence (Q58WW8 1-305): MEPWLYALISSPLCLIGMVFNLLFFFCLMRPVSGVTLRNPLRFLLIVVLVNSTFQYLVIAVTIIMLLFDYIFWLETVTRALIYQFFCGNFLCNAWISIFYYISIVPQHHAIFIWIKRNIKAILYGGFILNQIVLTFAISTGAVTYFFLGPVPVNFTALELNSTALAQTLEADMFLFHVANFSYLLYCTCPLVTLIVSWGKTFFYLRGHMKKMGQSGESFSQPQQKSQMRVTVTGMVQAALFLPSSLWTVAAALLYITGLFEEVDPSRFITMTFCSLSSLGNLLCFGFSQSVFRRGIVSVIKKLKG

Assay [2] has as its target T3, chicken Tas2r2 (ggTas2r2) (Gallus gallus, UniProt A0A1D5PXM6).
T3 construct: gene LOC101747503; full length, N-terminal sst3 export tag, C-terminal hsv tag; HEK 293T-Galpha16gust44
T3 sequence (A0A1D5PXM6 1-311): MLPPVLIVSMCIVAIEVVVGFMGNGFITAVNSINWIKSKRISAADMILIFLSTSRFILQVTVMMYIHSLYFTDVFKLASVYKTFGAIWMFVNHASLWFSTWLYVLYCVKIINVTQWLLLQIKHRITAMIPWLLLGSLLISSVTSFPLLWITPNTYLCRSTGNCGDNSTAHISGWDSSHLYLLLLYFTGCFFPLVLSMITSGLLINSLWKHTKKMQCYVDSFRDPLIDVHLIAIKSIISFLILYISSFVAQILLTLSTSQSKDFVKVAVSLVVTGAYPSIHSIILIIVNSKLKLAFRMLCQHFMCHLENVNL

With `N[C@@H](Cc1c[nH]c2ccccc12)C(=O)N[C@@H](Cc1c[nH]c2ccccc12)C(=O)N[C@@H](Cc1c[nH]c2ccccc12)C(=O)O` [L-Trp-Trp-Trp] (H-Trp-Trp-Trp-OH), the dF/F entry on Tas2r29 (xtTas2r29) was “Tas2r29 exhibited only weak, yet significant, responses to L-Trp-Trp-Trp as well as to CA and GCA”.
`N[C@@H](Cc1c[nH]c2ccccc12)C(=O)O` [L-Trp]: in assay [1], the dF/F result was “Subsequent testing with L- and D-Trp revealed responsiveness to these amino acids”.
In the case of `C[C@H](CCC(=O)O)[C@H]1CC[C@H]2[C@@H]3[C@H](O)C[C@@H]4C[C@H](O)CC[C@]4(C)[C@H]3C[C@H](O)[C@]12C` [cholic acid], the dF/F entry in assay [2] is “chicken Tas2r2 were only significant for the highest concentrations of the two bile acids”.
